Tests used:
rats = assay: infusion into rats, mean arterial blood pressure and heart rate (Example IV); format: in vivo, rat
Procedure: Rats (n=4) were infused via femoral vein with 200 nmol/kg of S-nitrosothiol (S-nitrosohemoglobin). Mean arterial blood pressure (MAP) and heart rate (HR) were measured.
In another case, rats (n=4) were infused via femoral artery with 200 nmol/kg of S-nitrosothiol (S-nitrosohemoglobin). Mean arterial blood pressure (MAP) and heart rate (HR) were measured.

mouse aorta rings = assay: vascular ring bioassay on mouse aorta rings (Example I)
Excerpt: The assay involves a chamber of solution into which mouse aorta ring attached to a force transducer is placed where the solution is bubbled with 21% O2/5% CO2/balance N2. The force transducer moves a pen in response to contraction and relaxation effects to give a tracing of forces (tension) in the Y-direction versus time in the X-direction on a chart. Various agents as described later are applied to the aorta rings to give to give contraction and relaxation effects. Tracings of force (tension) in the Y-direction versus time in the X-direction are obtained with upward direction indicating contraction and downward direction indicating relaxation. […] On FIG. 1, “E” means application of phenylephrine, a constricting agent, and the concentrations thereof at particular times are denoted; “ACh” means application of acetyIcholine (which causes a relaxation effect in response to endogenous nitric oxide) and the concentration thereof at particular times are denoted; and “GSNO” means application of S-nitrosoglutathione, an NO donor, and the concentrations thereof at particular times are denoted. […] As further shown in FIG. 1, flushing is then carried out three times then and one more time; the flushing is carried out (with Krebs-Henseleit solution described hereinafter in Example III) and removes the acetylcholine. As further shown in FIG. 1, phenylephrine is then applied starting at a concentration of 10^−7 molar increasing to a concentration of 10^−5.5 molar. […] As further shown in FIG. 1, flushing is then carried out three times (with Krebs-Henseleit solution); and then one more time with the same flushing agent; this flushing removes the S-nitrosoglutathione.

[1] = test system: artery rings from New Zealand white rabbits; assay: vascular ring bioassay on rabbit artery rings (Example II); conditions: NO donor 1 μM
Procedure: A vascular ring bioassay was carried out as follows: Artery rings (3 mm) were harvested from New Zealand white rabbits and mounted in 25 ml tissue baths filled with Krebs-Henseleit buffer and bubbled with 21% O2/5% CO2/balance N2. Isometric tension was measured. All rings in the study were suspended with similar baseline levels of tension (˜2 g). Tissue baths were thoroughly rinsed with fresh buffer between interventions. Three runs were carried out. In one run denoted the control, no additive was added. […] In a third run, SIN1 was added to provide a concentration of 1 μM. […] After flushing with solution as described in Example I, phenylephrine was then added in each case to provide a concentration of 1 to 10 μM. The results are shown in FIG. 2 where percent increase in tone is indicated on the Y-axis and additive or absence thereof (control) is indicated on the X-axis.

[2] = test system: isolated buffer-perfused lungs (IPL) of rabbits; assay: isolated buffer-perfused rabbit lung, pulmonary artery pressure (Example III); conditions: for change in mean pulmonary artery pressure (Ppa) on injection of NO donor: GSNO 50 μM or SIN1 100 μM injected into the recirculating system; for constriction (change in Ppa) by serotonin: serotonin 1 micromolar sixty minutes after GSNO 50 μM or SIN1 100 μM
[3] = test system: patient with recurrent episodes of acute vasospastic angina; assay: patient with acute vasospastic angina (Example VII); format: in vivo, human
Procedure: A person who complains of recurrent episodes of acute vasospastic angina is treated with S-nitrosoglutathione (GSNO) at 1-1,000 μg orally 4×/day. Blood pressure is unchanged and acute symptoms resolve. In addition, the frequency of vasospastic chest pain decreases over the following three weeks.

[4] = test system: patient with primary pulmonary hypertension class II; assay: patient with primary pulmonary hypertension (Example VIII); format: in vivo, human
Procedure: […] They are given 10 mM GSNO in 1 cc saline nebulized 3×/day. Symptoms of shortness of breath resolve but pulmonary artery pressure and systemic pressure are unchanged with acute administration. After four months of therapy, pulmonary artery pressure has dropped by 5 mm of mercury and the patient's symptoms have improved. The patient is subsequently given oral GSNO at 10 μg TID and doses are empirically changed to prevent any significant change in blood pressure.

[5] = test system: patient with poorly controlled asthma; assay: patient with poorly controlled asthma (Example IX); format: in vivo, human
Excerpt: A person with poorly controlled asthma presents with an exacerbation. […] The frequency of asthma exacerbations decline.

[6] = test system: patient with a transient ischemic attack; assay: patient with transient ischemic attack (Example XIII); format: in vivo, human
Procedure: A person presents with a transient ischemic attack evidenced by confusion and headache. Carotid dopplers show 98% new occlusion of the right carotid artery. Systolic blood pressure is 180 mm of mercury. They are given an infusion intravenously of S-nitrosocysteinyl glycine 10 μg with resolution of the headache. The systemic blood pressure remains 175 mm of mercury. Symptoms of headache and confusion resolve. The patient is then maintained on oral S-nitrosoglutathione 1-10 μg 3×/day with no recurrence of transient ischemic symptoms.

[7] = test system: patient with claudication and a leg ulcer; assay: patient with claudication and leg ulcer (Example XV); format: in vivo, human
Procedure: A person with risk factors of hypertension, diabetes, and hypercholestolemia and a strong family history of atherosclerosis presents with claudication and a leg ulcer. They are begun on an infusion of (SIN-1) 0.3 μm/kg per hour for a total of 1 mg with no change in blood pressure. Symptoms of rest pain resolve. They are then begun on oral S-nitrosoglutathione 1-10 μg 3×/day with improvement of duration of exercise and no recurrence of rest pain.

[8] = test system: patient with uncontrolled hypertension; assay: patient with uncontrolled hypertension (Example XVI); format: in vivo, human; conditions: for exacerbation on maintenance: maintained on GSNO together with ethyl nitrite; for blood pressure (acute): oral GSNO 1 to 10 micrograms QID together with ethyl nitrite 0.025% (1 cc) 3×/day; for blood pressure (acute) / blood pressure: baseline 200/110; for blood pressure: over the following two weeks, GSNO together with ethyl nitrite
Excerpt: A person with uncontrolled hypertension of 200/90 mm of mercury on a complex medical regimen including angiotension converting enzyme inhibitor, an alpha blocker, and beta blocker has a blood pressure of 200/110. They are begun on oral GSNO at 1 to 10 micrograms QID and ethyl nitrite 0.025% (1 cc) 3×/day. […] However, over the following two weeks the blood pressure falls to 170/100 consistent with better management of their disease.

[9] = test system: patient with severe three vessel disease; assay: patient with severe three vessel coronary disease (Example XVII); format: in vivo, human; conditions: oral, titrated so that resting systolic blood pressure does not change; three years
Excerpt: They do well with no symptoms of coronary disease over the following three years.

[10] = test system: patient with congestive heart failure, hypotension and angina; assay: patient with congestive heart failure, hypotension and angina, intraarterial infusion (Example XIX); format: in vivo, human; conditions: 200 nmol/kg via the brachial artery over 3 minutes
Procedure: A person with congestive heart failure develops hypotension and angina. S-nitrosoglutathione (200 nmol/kg) is infused via the brachial artery over 3 minutes. The angina resolves. The systolic blood pressure rises from 85 mm Hg to 100 mm Hg.

platelets = conditions: doses that do not acutely drop blood pressure; cited from earlier work
[11] = test system: patient receiving erythropoietin who develops chest pain; assay: patient on erythropoietin with chest pain, thiol (Example XXI); format: in vivo, human
Excerpt: A person receiving erythropoietin to raise red blood count depleted by renal failure, develops chest pain (caused by increased concentration of red blood cells).

[12] = test system: patient with anxiety and stress; assay: patient with anxiety and stress (Example XVIII); format: in vivo, human; conditions: ½ to 1 inch patch 3×/day titrated to avoid change in blood pressure or headache
[13] = test system: patient receiving erythropoietin who develops chest pain; assay: patient on erythropoietin with chest pain, NO donor infusion (Example XX); format: in vivo, human; conditions: infusion 1-10 nmolkg/min
Excerpt: A person receiving erythropoietin to raise red blood count depleted because of treatment for cancer or renal failure, develops chest pain (caused by increased concentration of red blood cells).

dogs = assay: systemic infusion of NO donor into dogs, systemic blood pressure (Example VI); format: in vivo, dog; conditions: without and with ischemia, S-nitrosocysteine 3 nmol/kg or S-nitrosoalbumin 10 nmol/kg infused systemically
Excerpt: In another case, S-nitrosocysteine (3 nmol/kg) or S-nitrosoalbumin (10 nmol/kg) is infused systemically into dogs. […] The response to S-nitrosoalbimim infusion is no different. The infusions of NO donors result in reaction with membrane receptors in red blood cells.

[14] = test system: patient with recurrent rectal spasm; assay: patient with recurrent rectal spasm (Example X); format: in vivo, human
Excerpt: A person with recurrent rectal spasm is given oral ethyl nitrite 0.125% in ethanol (1 cc) 3×/day. […] They then continued on this therapy with a decrease in incidence of rectal pain.

[15] = test system: patient with esophageal spasm; assay: patient with esophageal spasm (Example XI); format: in vivo, human
Excerpt: A alcoholic with esophageal spasm is given 2 cc of 0.125% ethyl nitrite in ethanol 3×/day.

[16] = test system: infant with pyloric stenosis; assay: infant with pyloric stenosis (Example XII); format: in vivo, human; conditions: 2 cc of 0.125% in ethanol 3×/day
Excerpt: An infant with pyloric stenosis is given 2 cc of 0.125% ethyl nitrite in ethanol 3×/day.
Symptoms of intestinal pain resolve.

[17] = regardless of dosage; cited from earlier work
[18] = test system: patient with symptoms of depression; assay: patient with depression (Example XIV); format: in vivo, human
Procedure: A person presents with symptoms of depression. They are begun on oral molsidomine (SIN-1) 10 μg per kg dose-adjusted so that blood pressure is unchanged. Over the following three weeks the symptoms of depression resolve and the patient is maintained on this dose with no recurrence.

[19] = 200 nmol/kg via femoral artery, rats
[20] = 200 nmol/kg via femoral vein, rats
[21] = oral 0.125% in ethanol (1 cc) 3×/day
[22] = infusion 0.3 μm/kg per hour for a total of 1 mg

S-nitrosohemoglobin
heart rate (rats; [19]): increased | mean arterial blood pressure (rats; [19]): increased | heart rate (rats; [20]): no effect | resting blood pressure (MAP) (rats; [20]): no effect | blood pressure (rats; higher doses of S-nitrosothiol): fall

N[C@@H](CCC(=O)N[C@@H](CSN=O)C(=O)NCC(=O)O)C(=O)O [GSNO, S-nitrosoglutathione]
effect on tension of phenylephrine-contracted ring (mouse aorta rings; S-nitrosoglutathione 1 nanomolar increasing to 10 micromolar): relaxing (contraction-attenuating) effect | contracting response to phenylephrine after pretreatment and flushing (mouse aorta rings; phenylephrine 10^-7 to 10^-5 molar after S-nitrosoglutathione removed by flushing): does not cause a contracting response | effect on resting tone (relaxing effect) [1]: no effect on resting tone | change in mean pulmonary artery pressure (Ppa) on injection of NO donor [2]: did not cause change in Ppa | constriction (change in Ppa) by serotonin [2]: prevented constriction | acute symptoms of vasospastic angina ([3]; 1-1,000 μg orally 4×/day): resolve | blood pressure ([3]; 1-1,000 μg orally 4×/day): unchanged | frequency of vasospastic chest pain ([3]; over the following three weeks): decreases | symptoms of shortness of breath ([4]; 10 mM in 1 cc saline nebulized 3×/day): resolve | pulmonary artery pressure and systemic pressure ([4]; acute administration, 10 mM in 1 cc saline nebulized): unchanged | drop of pulmonary artery pressure ([4]; after four months of therapy): 5 mm of mercury | patient's symptoms ([4]; after four months of therapy): improved | frequency of asthma exacerbations ([5]; oral 10 μg Q 6 hours, continued): decline | recurrence of transient ischemic symptoms ([6]; oral 1-10 μg 3×/day maintenance): no recurrence | duration of exercise ([7]; oral 1-10 μg 3×/day): improvement | recurrence of rest pain ([7]; oral 1-10 μg 3×/day): no recurrence | exacerbation on maintenance [8]: no further exacerbation | blood pressure (acute) [8]: does not change | blood pressure [8]: 170/100 | symptoms of coronary disease [9]: no symptoms | angina [10]: resolves | systolic blood pressure after infusion ([10]; rises from 85 mm Hg): 100 mm Hg | thromboembolic events (platelets): inhibit other thromboembolic events

CC(=O)N[C@@H](CS)C(=O)O [N-acetylcysteine]
frequency of angina ([11]; 600 ng, PO, TID): decreases | blood pressure ([11]; 600 ng, PO, TID, over three weeks): drops | blood pressure ([11]; infusion 50 ng/kg): without a change | chest pain ([11]; infusion 50 ng/kg): alleviating their chest pain

CNC[C@H](O)c1cccc(O)c1 [phenylephrine]
effect on tension of ring (mouse aorta rings; phenylephrine 10^-8 molar increasing to 10^-5.5 molar): contracting effect

O=[N+]([O-])OCC(CO[N+](=O)[O-])O[N+](=O)[O-] [nitroglycerin]
symptoms of anxiety and stress [12]: alleviated in 4 days

CCOC(=O)[C@@H](N)CSN=O [S-nitrosocysteine ethyl ester]
airway tone ([5]; inhaled 1-1,000 μg nebulized in 10 cc): does not significantly improve | acute episode of asthma ([5]; over the following three days): brought under control | blood pressure [13]: without a change | chest pain [13]: alleviating chest pain

N[C@@H](CSN=O)C(=O)NCC(=O)O [S-nitrosocysteinyl glycine]
systemic blood pressure ([6]; after intravenous infusion 10 μg, systolic 180 mm of mercury before): 175 mm of mercury | symptoms of headache and confusion ([6]; intravenous infusion 10 μg): resolve

N[C@@H](CSN=O)C(=O)O [S-nitrosocysteine]
systemic blood pressure (dogs): no effect

CCON=O [ethyl nitrite]
incidence of rectal pain ([14]; continued therapy): decrease | blood pressure [14, 21]: does not change | symptoms of rectal pain [14, 21]: resolve | symptoms of esophageal pain ([15]; 2 cc of 0.125% in ethanol 3×/day): resolve | recurrence of symptoms ([15]; same maintenance dose): do not recur | symptoms of intestinal pain [16]: resolve | exacerbation on maintenance [8]: no further exacerbation | blood pressure (acute) [8]: does not change | blood pressure [8]: 170/100

O=C(Oc1cccc(CO[N+](=O)[O-])c1)c1ccccc1O [B-NOD, 2-hydroxybenzoic acid 3-nitrooxymethylphenyl ester]
acute lowering of mean arterial blood pressure [17]: ≤ 10%

CCOC(=O)[N-]c1cn(N2CCOCC2)n[o+]1 [SIN1, molsidomine]
effect on resting tone (relaxing effect) [1]: did not cause a relaxing effect | change in mean pulmonary artery pressure (Ppa) on injection of NO donor [2]: did not cause change in Ppa | constriction (change in Ppa) by serotonin [2]: prevented constriction | recurrence of depression ([18]; maintained on this dose): no recurrence | symptoms of depression ([18]; oral 10 μg per kg dose-adjusted so that blood pressure is unchanged, over three weeks): resolve | blood pressure [7, 22]: no change | symptoms of rest pain [7, 22]: resolve

Source: patent US6472390B1, “Use of therapeutic dosages for nitric oxide donors which do not significantly lower blood pressure or pulmonary artery pressure” (Duke University, priority 2001, dated 2002)
